Several values for one entry are separate records, joined by “and”; a condition that tells them apart may be missing. Equal entries are not always repeated.
Molecular target: Nonstructural protein 3 (Zika virus, UniProt A0A024AXB9)
Assay: Functional biochemical assay to identify treatments for viral infectious disease that targets Zika NS2B-NS3 protease. Utilizing a direct enzyme activity measurement method, reading the fluorescence intensity is used to characterize the relative potency of inhibitors as IC50.
Parameters: species or system PRVABC59

Nonstructural protein 3, sequence (A0A024AXB9 whole entry): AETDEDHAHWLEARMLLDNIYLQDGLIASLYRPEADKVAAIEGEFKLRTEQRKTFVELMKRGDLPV

Structure (SMILES) | IC50
CCc1ccccc1COc1ccc(S(=O)(=O)Nc2ccc(Cl)cc2C(=O)O)cc1 | 12.6 µM
O=C(Nc1cc(Cl)cc([C@H](C#CCO)Nc2cccc(-c3nn[nH]n3)c2)c1)OCc1ccccc1 | 38.3 µM
O=C(O)c1cc(Cl)ccc1NS(=O)(=O)c1ccc(-c2ccncc2)cc1 | > 99.5 µM
COC(=O)c1cc(Br)cc2c(Cc3ccc(-c4nnn[nH]4)cc3)c[nH]c12 | > 99.5 µM
O=C(O)c1cc(Cl)ccc1S(=O)(=O)Nc1ccc(Oc2ccccc2Cl)cc1 | 48 µM
COc1c(C(N)=O)cc(Cl)cc1S(=O)(=O)Nc1cccc(-c2nnn[nH]2)c1 | > 99.5 µM
COc1ccc([C@@H]2C[C@H]2NC(=O)c2cccc3c2CC(=O)N3)cc1 | > 25 µM
O=C(O)c1cc(Cl)ccc1S(=O)(=O)Nc1ccc(N2CCCCCC2)cc1 | > 99.5 µM
CCc1nc2c(C(=O)Nc3ccc4c(c3)CNC4)cc(Br)cc2[nH]1 | 0.187 µM
O=C(Nc1cc(Cl)cc(C(=O)Nc2cccc([C@H]3CCCCN3)c2)c1)OCc1ccccc1 | 57.8 µM
CN(C)C(=O)CCCc1nc2c(C(=O)Nc3ccc4c(c3)CNC4)cc(Cl)cc2[nH]1 | 0.28 µM
CCn1ccnc(N2CC[C@H](c3ccncc3)C2)c1=O | > 99.5 µM
N#Cc1ccccc1-c1ccc([C@H](NC(=O)OCc2ccccc2)C(=O)Nc2cccc(CN)c2)cc1 | 12 µM
Cn1cc(CN2CCC(c3c[nH]c4cccnc34)CC2)c2ccccc21 | > 99.5 µM
COc1ccc(CNC(=O)[C@@H](NC(=O)OCc2ccccc2)c2ccc(OCc3ccccc3)cc2)cn1 | > 99.5 µM
CC(C)(C)OC(=O)NCc1cc(Cl)cc(C(=O)O)c1 | > 99.5 µM
C=CC[C@H](Nc1cc(CN)ccn1)c1cc(Cl)cc(NC(=O)OCc2ccccc2)c1 | > 99.5 µM
CCCC[C@H](NC(C)=O)C(=O)N[C@H](C(=O)NCc1ccc(C(N)=O)cc1)c1ccc(OCc2ccccc2)cc1 | > 99.5 µM
O=C(Nc1cc(Cl)cc(C(=O)NCc2ccc(-c3nnn[nH]3)cc2)c1)OCc1ccccc1 | 68.3 µM
O=C(O)c1cc(Cl)c(F)cc1S(=O)(=O)Nc1ccc(Oc2ccccc2Cl)cc1 | 33.5 µM and 34.2 µM
COc1ccc(Cl)cc1[C@H](Nc1ccc2c(c1)CNC2)C(=O)NCC(F)F | 0.061 µM and 0.053 µM
O=C(Nc1cc(Cl)cc(C(=O)Nc2ccc([C@H]3CCNC3)cc2)c1)OCc1ccccc1 | 5.43 µM
O=C(Nc1cnc2c(c1)CNCC2)c1cc(Cl)cc2[nH]ncc12 | 0.366 µM
CNC(=O)[C@H](Nc1cccc(-c2nn[nH]n2)c1)c1cc(Cl)cc2[nH]ncc12 | 9.2 µM
O=C(Nc1cc(Cl)cc(C(=O)Nc2ccc(-n3nn[nH]c3=O)cc2)c1)OCc1ccccc1 | 30.9 µM
O=C(Nc1cc(Cl)cc(C(=O)Nc2cncc(C(=O)O)c2)c1)OCc1ccccc1 | > 99.5 µM

Structure (SMILES) | IC50
CC(C)S(=O)(=O)N1CCC([C@@H](NC(=O)OCc2ccccc2)C(=O)Nc2cccc(CN)c2)CC1 | > 99.5 µM
Cc1ccc(NC(=O)c2cc(Cl)cc3[nH]ncc23)cc1CN | 1.39 µM
O=C(Nc1cc(-c2cccnc2)ccn1)c1csc(C[C@H]2CCCNC2)n1 | > 25 µM
c1ccc2c([C@H]3CCN(CCC4CCOCC4)C3)c[nH]c2c1 | > 99.5 µM
NCc1cccc(NC(=O)[C@H](NC(=O)OCc2ccccc2)c2cccc(-c3ccccn3)c2)c1 | 82.4 µM
O=C(NCc1ccc(F)cc1)[C@H](Nc1ccc2c(c1)CNC2)c1cc(Cl)cc2[nH]ncc12 | 0.078 µM and 0.065 µM
O=C(O)c1ccc2nc(Cc3c[nH]c4ccc(Cl)cc34)cn2c1 | > 99.5 µM
O=C(Nc1ccc2c(c1)CNC2)c1cc(F)cc2[nH]c(-c3ccccc3F)nc12 | 23 nM (2×) and 13 nM
NCc1cccc(NC(=O)[C@@H](NC(=O)OCc2ccccc2)c2ccc(OCCN3CCCCC3)cc2)c1 | > 99.5 µM
NCCCc1ccnc(NC(=O)c2csc(C3CC3)n2)c1 | > 99.5 µM
CC1=C(c2cc(NC(=O)c3cc(Cl)cc4[nH]ncc34)cc3c2CNC3)CCC1=O | 0.137 µM
CN(C)C(=O)c1cc(CN)cc([C@@H]2C[C@H]2c2cc(Cl)cc(NC(=O)OCc3ccccc3)c2)c1 | 11.9 µM
O=C(O)c1cccc(NC(=O)c2cccc(OCc3c(Cl)cccc3Cl)c2)c1 | > 99.5 µM
O=C(Nc1cc(Cl)cc(S(=O)(=O)Nc2cccc(-n3nn[nH]c3=O)c2)c1)OCc1ccccc1 | > 99.5 µM
CCn1ccnc(N2CC[C@H](c3ccc(F)cc3)C2)c1=O | > 99.5 µM
Cc1c(NC(=O)OCc2ccccc2)cc(C(=O)Nc2cccc(CN)c2)cc1C(F)(F)F | > 99.5 µM
O=C(NCC(F)F)[C@H](Nc1ccc2c(c1)CNC2)c1cc(F)cc2[nH]ncc12 | 0.058 µM and 0.037 µM
CC(C)C[C@H](NC(=O)c1cc(Cl)cc(NC(=O)OCc2ccccc2)c1)c1nnn[nH]1 | > 99.5 µM
CN1CC=C(c2ccc(S(=O)(=O)Nc3ccc(Cl)cc3C(=O)O)cc2)CC1 | > 99.5 µM
CC(=Cc1cc(Cl)cc(NC(=O)OCc2ccccc2)c1)c1cccc(CN)c1 | 5.26 µM
O=C(Nc1ccc2c(c1)CNC2)c1nc(-c2ccccc2)cs1 | > 25 µM
O=C(O)c1cc(Cl)ccc1S(=O)(=O)NC1CCN(CC2CCOCC2)CC1 | > 99.5 µM
c1cc(CN2CCC(c3cscn3)CC2)[nH]n1 | > 99.5 µM
O=C(Nc1cc(Cl)cc(C(=O)NCC[C@H]2COCCN2)c1)OCc1ccccc1 | > 99.5 µM
O=C(NS(=O)(=O)C1CC1)c1cc(Cl)ccc1NS(=O)(=O)c1ccc(Oc2ccccc2Cl)cc1 | 19.5 µM
O=C(Nc1ccc2c(c1)CNC2)c1cc(Br)cc2c1nc1n2CCCC1 | 0.554 µM

Structure (SMILES) | IC50
O=C(/C=C/c1ccccc1CN1CCCCC1)C(=O)N1CCOCC1 | > 198 µM
CNC(=O)[C@H](Nc1cccc(C(=O)O)c1)c1cc(Cl)cc2[nH]ncc12 | > 99.5 µM
O=C(Nc1ccc2c(c1)CNCCO2)c1cc(Cl)cc2[nH]ncc12 | 0.835 µM
CCn1cc(S(=O)(=O)N[C@@H](C(=O)Nc2cccc(CN)c2)c2ccc(OCc3ccccc3)cc2)cn1 | > 99.5 µM
O=S(=O)(Nc1ccc(Cl)cc1CN(CC1CC1)CC1CC1)c1ccc(Oc2ccccc2Cl)cc1 | 32 µM
c1ccc2c(CN3CC(c4cscn4)C3)c[nH]c2c1 | > 99.5 µM
O=C(O)c1ccc(C2CCN(Cc3c[nH]c4ccccc34)CC2)cc1 | > 99.5 µM
CCn1c(=O)c(N2CCCC[C@H](N3CCCC3)C2)nc2ccccc21 | > 99.5 µM
CC(C)(O)c1cncc(NC(=O)c2cccc3c2CC(=O)N3)c1 | > 25 µM
CN1CCn2nc(NC(=O)c3cc(Cl)cc(NC(=O)OCc4ccccc4)c3)cc2C1 | > 99.5 µM
CCNC(=O)Nc1cc(Cl)cc(C(=O)Nc2cccc(-c3nn[nH]n3)c2)c1 | > 99.5 µM
Cn1nc2c(c1NC(=O)[C@@H](NC(=O)OCc1ccccc1)c1ccc(OCc3ccccc3)cc1)CNC2 | > 99.5 µM
O=C1C[C@H]2[C@H](CCCN2C(=O)Nc2ccc3c(c2)CNC3)N1 | > 25 µM
O=C(Nc1ccc2c(c1)CNC2)c1ncnc2sccc12 | > 99.5 µM
NCc1cc(NC(=O)c2cc(Cl)cc(NC(=O)OCc3ccccc3)c2)cc(-c2csc(CC(=O)O)c2)c1 | 15 µM
OCc1cc(C2CCN(Cc3c[nH]c4ccccc34)CC2)no1 | 54.9 µM
CC[C@H](Cc1nnn[nH]1)c1ccc(NC(=O)c2cc(Cl)cc(SC)c2)cc1 | > 99.5 µM
CCn1ccnc(N(C)[C@@H](CO)Cc2c[nH]c3ccccc23)c1=O | > 99.5 µM
CSc1cc(Cl)cc(C(=O)Nc2cccc(-n3nn[nH]c3=O)c2)c1 | > 99.5 µM
Cn1ccnc(N2CCC(NS(=O)(=O)c3ccc(Cl)cc3C(=O)O)CC2)c1=O | > 99.5 µM
Cn1cc2cc(Cl)cc(C(=O)Nc3ccc4c(c3)CNC4)c2n1 | 0.214 µM
NCc1cccc(NC(=O)[C@H]2[C@H]3CCCC[C@H]3[C@@H]2NC(=O)OCc2ccccc2)c1 | 94.4 µM
OC1(c2ccccc2)CCN(Cc2c[nH]c3ccccc23)CC1 | > 99.5 µM
Cc1ccc(CN(C)C)cc1NC(=O)[C@@H](NC(=O)OCc1ccccc1)c1ccc(OCc2ccccc2)cc1 | > 99.5 µM
O=C(Nc1ccc2c(c1)CNC2)c1ncc(Br)s1 | 61.7 µM
NCCCc1ccnc(NC(=O)c2cnn3c2CCC3)c1 | > 25 µM

Structure (SMILES) | IC50
N#C[C@H](Nc1ccc2c(c1)CNC2)c1cc(Cl)cc2c1OCC2 | 2.44 µM
CCn1nccc1-c1cccc([C@@H](NC(=O)OCc2ccccc2)C(=O)Nc2cccc(CN)c2)c1 | > 99.5 µM
Cc1c(C(=O)Nc2cccc(-n3nn[nH]c3=O)c2)cc(C2CC2)n1C | > 99.5 µM
CC(C)(C)c1[nH]c2ccc(F)cc2c1Cc1ccc(-c2nnn[nH]2)cc1 | > 99.5 µM
N#C[C@H](Nc1ccc2c(c1)CNC2)c1cc(Cl)cc2[nH]ncc12 | 0.116 µM
O=C(Nc1cc2c(cc1C1CC1)CNC2)c1cc(F)cc2[nH]ncc12 | 0.092 µM and 0.046 µM
O=C(c1cc(Cl)cc2[nH]ncc12)N1CC[C@]2(CCNC2)C1 | > 99.5 µM
NCc1cccc(NC(=O)[C@H]2c3ccc(Br)cc3OCCN2C(=O)OCc2ccccc2)c1 | > 99.5 µM
CCc1cc(Cl)cc(C(=O)Nc2ccc3c(c2)CNC3)c1 | 0.457 µM
C#C[C@H](Nc1ccc2c(c1)CNC2)c1cccc2[nH]c(=O)[nH]c12 | 7.05 µM
COC(=O)CNC(=O)[C@H](Nc1ccc2c(c1)CNC2)c1cc(Cl)cc(C2CC2)c1 | 0.097 µM and 0.073 µM
c1ccc(COC2CCN(Cc3c[nH]c4ccccc34)CC2)cc1 | > 99.5 µM
NCc1cccc(NC(=O)[C@H](NC(=O)c2ccncc2)c2ccc(OCc3ccccc3)cc2)c1 | > 99.5 µM
N#Cc1cc(CN)cc(NC(=O)c2cc(Cl)cc(NC(=O)OCc3ccccc3)c2)c1 | 10.7 µM
COc1ccc2[nH]cnc2c1S(=O)(=O)Nc1ccc2c(c1)CNC2 | > 25 µM
CCc1cc(NC(=O)OCc2ccccc2)cc(C(=O)Nc2cccc(CN)c2)c1 | 39.8 µM
N#Cc1cc(F)cc(N2CC[C@H](CO)C2)c1 | > 99.5 µM
C[C@@]1(c2cc(Cl)cc(NC(=O)OCc3ccccc3)c2)C[C@H]1c1cccc(CN)c1 | 19.5 µM
O=C(O)c1cc(Cl)ccc1S(=O)(=O)NC1CCC(N2CCCCC2=O)CC1 (stereo unspecified) | > 99.5 µM
CNC(=O)[C@H](Nc1cccc([C@H]2CCOC2)c1)c1cc(C2CC2)n(C)n1 | > 25 µM
CS(=O)(=O)c1cccc(NC(=O)c2cc(Cl)cc(NC(=O)OCc3ccccc3)c2)c1 | > 99.5 µM
CC(C)n1cc(C(=O)Nc2cc(-c3cccnc3)ccn2)c2ccccc21 | > 25 µM
NCc1cccc(NC(=O)[C@@H](NC(=O)OCc2ccccc2)c2ccc(-c3cc4cccnc4s3)cc2)c1 | 3.56 µM

Reference: ChEMBL document CHEMBL5604062, “ASAP - ZIKV NS2B-NS3 protease fluorescence dose response” (2024)
